According to patent publication US20170190671A1, “BIS(ARYL)CATECHOL DERIVATIVES AS HERBICIDES” (E I DU PONT DE NEMOURS AND COMPANY, priority 2014, published 2017):

Tests used:
Experiment in all cases: Test C postemergence
Assay type in all cases: in vivo
[1] = test system: Italian ryegrass (Lolium multiflorum); conditions: Lolium multiflorum, post-emergence, 336 h, Postemergence, scale 0 to 100, read-out: Plant response rating, Ryegrass, Italian
How it was run: (§1)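 Treatment is preemergence to seeds in a loam and sand soil, or postemergence to plants 2 to 18 cm high in a peat moss-based medium. The compound is delivered in a non-phytotoxic solvent mixture including surfactant. Effects are judged by eye 13 to 15 days later on a 0 to 100 scale.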

[2] = test system: barnyardgrass (Echinochloa crus-galli); conditions: Echinochloa crus-galli, post-emergence, Postemergence, scale 0 to 100, read-out: Plant response rating, Barnyardgrass
How it was run: as §1

[3] = test system: blackgrass (Alopecurus myosuroides); conditions: Alopecurus myosuroides, post-emergence, 336 h, Postemergence, scale 0 to 100, read-out: Plant response rating, Blackgrass
How it was run: as §1

[4] = test system: chickweed (common chickweed, Stellaria media); conditions: Stellaria media, post-emergence, Postemergence, scale 0 to 100, read-out: Plant response rating, Chickweed
How it was run: as §1

[5] = test system: corn (Zea mays); conditions: Zea mays, post-emergence, 336 h, Postemergence, scale 0 to 100
How it was run: as §1

[6] = test system: giant foxtail (Setaria faberii); conditions: Setaria faberi, post-emergence, 336 h, Postemergence, scale 0 to 100, read-out: Plant response rating, Foxtail, Giant
How it was run: as §1

[7] = test system: johnsongrass (Sorghum halepense); conditions: Sorghum halepense, post-emergence, 336 h, Postemergence, scale 0 to 100, read-out: Plant response rating, Johnsongrass
How it was run: as §1

[8] = test system: lambsquarters (Chenopodium album); conditions: Chenopodium album, post-emergence, 336 h, Postemergence, scale 0 to 100, read-out: Plant response rating, Lambsquarters
How it was run: as §1

[9] = test system: oilseed rape (Brassica napus); conditions: Brassica napus, post-emergence, Postemergence, scale 0 to 100, read-out: Plant response rating, Oilseed Rape
How it was run: as §1

[10] = test system: pigweed (Amaranthus retroflexus); conditions: Amaranthus retroflexus, post-emergence, 336 h, Postemergence, scale 0 to 100, read-out: Plant response rating, Pigweed
How it was run: as §1

[11] = test system: ragweed (common ragweed, Ambrosia elatior); conditions: Ambrosia artemisiifolia, post-emergence, 336 h, Postemergence, scale 0 to 100, read-out: Plant response rating, Ragweed
How it was run: as §1

[12] = test system: soybean (Glycine max); conditions: Glycine max, post-emergence, Postemergence, scale 0 to 100, read-out: Plant response rating, Soybean
How it was run: as §1

[13] = test system: waterhemp (common waterhemp, Amaranthus rudis); conditions: Amaranthus tuberculatus, post-emergence, Postemergence, scale 0 to 100, read-out: Plant response rating, Waterhemp
How it was run: as §1

[14] = test system: wild oat (Avena fatua); conditions: Avena fatua, post-emergence, Postemergence, scale 0 to 100, read-out: Plant response rating, Oat, Wild
How it was run: as §1

[15] = test system: yellow nutsedge (Cyperus esculentus); conditions: Cyperus, post-emergence, 336 h, Postemergence, scale 0 to 100, read-out: Plant response rating, Nutsedge, Yellow
How it was run: as §1

Fc1cnc(Oc2c(F)ccc(F)c2Oc2ncc(F)cn2)nc1 [Compound 29, 2,2′-[(3,6-difluoro-1,2-phenylene)bis(oxy)]bis[5-fluoropyrimidine]]
pest or weed control at 31 g/ha ([1]; 31 g ai/ha): 0% | pest or weed control at 62 g/ha ([1]; 62 g ai/ha): 35% | pest or weed control at 125 g/ha ([1]; 125 g ai/ha): 20% | pest or weed control at 16 g/ha ([2]; 16 g ai/ha): 0% | pest or weed control at 31 g/ha ([2]; 31 g ai/ha): 0% | pest or weed control at 62 g/ha ([2]; 62 g ai/ha): 5% | pest or weed control at 125 g/ha ([2]; 125 g ai/ha): 15% | pest or weed control at 16 g/ha ([3]; 16 g ai/ha): 0% | pest or weed control at 31 g/ha ([3]; 31 g ai/ha): 0% | pest or weed control at 62 g/ha ([3]; 62 g ai/ha): 5% | pest or weed control at 125 g/ha ([3]; 125 g ai/ha): 20% | pest or weed control at 16 g/ha ([4]; 16 g ai/ha): 45% | pest or weed control at 31 g/ha ([4]; 31 g ai/ha): 50% | pest or weed control at 62 g/ha ([4]; 62 g ai/ha): 50% | pest or weed control at 125 g/ha ([4]; 125 g ai/ha): 65% | Corn plant response rating (crop injury, 0 = no effect, 100 = complete kill) at 16 g/ha ([5]; 16 g ai/ha): 0% | Corn plant response rating (crop injury, 0 = no effect, 100 = complete kill) at 31 g/ha ([5]; 31 g ai/ha): 0% | Corn plant response rating (crop injury, 0 = no effect, 100 = complete kill) at 62 g/ha ([5]; 62 g ai/ha): 5% | Corn plant response rating (crop injury, 0 = no effect, 100 = complete kill) at 125 g/ha ([5]; 125 g ai/ha): 5% | pest or weed control at 16 g/ha ([6]; 16 g ai/ha): 0% | pest or weed control at 31 g/ha ([6]; 31 g ai/ha): 0% | pest or weed control at 62 g/ha ([6]; 62 g ai/ha): 5% | pest or weed control at 125 g/ha ([6]; 125 g ai/ha): 20% | pest or weed control at 16 g/ha ([7]; 16 g ai/ha): 0% | pest or weed control at 31 g/ha ([7]; 31 g ai/ha): 0% | pest or weed control at 62 g/ha ([7]; 62 g ai/ha): 20% | pest or weed control at 125 g/ha ([7]; 125 g ai/ha): 20% | pest or weed control at 16 g/ha ([8]; 16 g ai/ha): 75% | pest or weed control at 31 g/ha ([8]; 31 g ai/ha): 80% | pest or weed control at 62 g/ha ([8]; 62 g ai/ha): 85% | pest or weed control at 125 g/ha ([8]; 125 g ai/ha): 85% | plant injury at 31 g/ha ([9]; 31 g ai/ha): 60% | plant injury at 62 g/ha ([9]; 62 g ai/ha): 70% | plant injury at 125 g/ha ([9]; 125 g ai/ha): 90% | pest or weed control at 31 g/ha ([10]; 31 g ai/ha): 90% | pest or weed control at 62 g/ha ([10]; 62 g ai/ha): 95% | pest or weed control at 125 g/ha ([10]; 125 g ai/ha): 90% | pest or weed control at 31 g/ha ([11]; 31 g ai/ha): 70% | pest or weed control at 62 g/ha ([11]; 62 g ai/ha): 75% | pest or weed control at 125 g/ha ([11]; 125 g ai/ha): 80% | plant injury at 31 g/ha ([12]; 31 g ai/ha): 70% | plant injury at 62 g/ha ([12]; 62 g ai/ha): 75% | plant injury at 125 g/ha ([12]; 125 g ai/ha): 85% | pest or weed control at 31 g/ha ([13]; 31 g ai/ha): 85% | pest or weed control at 62 g/ha ([13]; 62 g ai/ha): 90% | pest or weed control at 125 g/ha ([13]; 125 g ai/ha): 95% | pest or weed control at 31 g/ha ([14]; 31 g ai/ha): 5% | pest or weed control at 62 g/ha ([14]; 62 g ai/ha): 30% | pest or weed control at 125 g/ha ([14]; 125 g ai/ha): 35% | pest or weed control at 31 g/ha ([15]; 31 g ai/ha): 0% | pest or weed control at 62 g/ha ([15]; 62 g ai/ha): 0% | pest or weed control at 125 g/ha ([15]; 125 g ai/ha): 0%
